Data reported in patent US4677105A, “2-alkoxycarbonylalkyl-3-oxo-5,6-diaryl-as-triazines having utility as therapeutics” (PF Medicament, priority 1985, dated 1987).
Read-outs that look alike come from different tables or passages of the source.

Experiments:
[1] = tested on: phenyl benzoquinone contortion; test: phenyl benzoquinone contortion test (analgesic properties); type: in vivo, mouse; details: 0.5 h
Experimental: The activity in the phenyl benzoquinone contortion test of […] et al., J. Pharm. Exptl. […] Dose expressed in mg/kg in the mouse, 30 minutes before intraperitoneal injection of the algogenic agent. The results are expressed in percentage variation of the number of contortions.

[2] = analgesic activity, test not specified; type: in vivo; details: in words
[3] = solubility; type: physicochemical; details: in words
[4] = mouse, oral, 30 minutes before intraperitoneal injection of the algogenic agent, read-out: ED50

With `CCOC(=O)C(C)n1nc(-c2ccc(Cl)cc2)c(-c2ccc(Cl)cc2)nc1=O` (centres unmarked) [Example 9, 2-(1-ethoxycarbonyl-1-ethyl)-3-oxo-5,6-di (p-chlorophenyl)-as-triazine] the ED50 [1, 4] was 10 mg/kg and the analgesic activity [2] was “effective analgesic agent”.

For `CCOC(=O)C(CC)n1nc(-c2ccc(OC)cc2)c(-c2ccc(OC)cc2)nc1=O` (centres unmarked) [Example 4, 2-(1-ethoxycarbonyl-1-propyl)-3-oxo-5,6-di(paramethoxyphenyl)-as-triazine], the ED50 [1, 4] was 11 mg/kg, the “solubility (insoluble in)” value [3] was “Insoluble in water, dilute bases and acids, ether” and the “solubility (soluble in)” value [3] was “Soluble in hot alcohols, benzene, methylene chloride, chloroform”.

In the case of `CCOC(=O)Cn1nc(-c2ccc(OC)cc2)c(-c2ccc(OC)cc2)nc1=O` [Example 1, 2-ethoxy carbonyl-methyl-3-oxo-5,6-di(paramethoxyphenyl)-as-triazine], the “solubility (insoluble in)” value [3] is reported as “Insoluble in water, dilute bases and acids” and the “solubility (soluble in)” value [3] is reported as “Soluble in methylene chloride, chloroform, ether; alcohols and hot benzene”.

In the case of `CCOC(=O)C(C)n1nc(-c2ccc(OC)cc2)c(-c2ccc(Cl)cc2)nc1=O` (centres unmarked) [Example 10, 2-(1-ethoxycarbonyl-1-ethyl)-3-oxo-5,6-(p-chloro-p-methoxy)-5,6-as-triazine], the ED50 [1, 4] is reported as 12 mg/kg and the analgesic activity [2] is reported as “effective analgesic agent”.

With `CCOC(=O)C(C)n1nc(-c2ccccc2)c(-c2ccccc2)nc1=O` (centres unmarked) [Example 7, 2-(1-ethoxycarbonyl-1-ethyl)-3-oxo-5,6-di (phenyl)-as-triazine] the ED50 [1, 4] was 18 mg/kg and the analgesic activity [2] was “effective analgesic agent”.

For `CCOC(=O)C(C)n1nc(-c2ccc(OC)cc2)c(-c2ccc(OC)cc2)nc1=O` (centres unmarked) [Example 3, 2-(1-ethoxycarbonyl-1-ethyl)-3-oxo-5,6-di(paramethoxyphenyl)-as-triazine], the ED50 [1, 4] was 13 mg/kg, the “solubility (insoluble in)” value [3] was “Insoluble in water, dilute bases and acids” and the “solubility (soluble in)” value [3] was “Soluble in hot alcohols, benzene, chloroform, methylene chloride and ether”.

In the case of `CCCC(C(=O)OCC)n1nc(-c2ccc(OC)cc2)c(-c2ccc(OC)cc2)nc1=O` (centres unmarked) [Example 5, 2-(1-ethoxycarbonyl-1-butyl)-3-oxo-5,6-di(paramethoxyphenyl)-as-triazine], the ED50 [1, 4] is reported as 16 mg/kg, the “solubility (insoluble in)” value [3] is reported as “Insoluble in water, dilute bases and acids” and the “solubility (soluble in)” value [3] is reported as “Soluble in hot alcohols, benzene, methylene chloride, chloroform, ether”.

In the case of `CCOC(=O)C(C)n1nc(-c2ccc(C)cc2)c(-c2ccc(C)cc2)nc1=O` (centres unmarked) [Example 8, 2-(1-ethoxycarbonyl-1-ethyl)-3-oxo-5,6-di(p-methylphenyl)-as-triazine], the ED50 [1, 4] is reported as 12 mg/kg and the analgesic activity [2] is reported as “effective analgesic agent”.

`O=C(OCC(O)CO)c1ccccc1Nc1ccnc2cc(Cl)ccc12` (centres unmarked) [Glaphenine, reference compound] showed an ED50 [1, 4] of 35 mg/kg.

With `CC(=O)Oc1ccccc1C(=O)O` [Aspirin, reference compound] the ED50 ([1]; Mus musculus, po) was 100 mg/kg.

In the case of `COC(=O)C(C)n1nc(-c2ccc(OC)cc2)c(-c2ccc(OC)cc2)nc1=O` (centres unmarked) [Example 6, 2-(1-methoxycarbonylethyl)-3-oxo-5,6-di(paramethoxyphenyl)-as-triazine], the ED50 [1, 4] is reported as 12 mg/kg, the “solubility (insoluble in)” value [3] is reported as “Insoluble: Water, ether” and the “solubility (soluble in)” value [3] is reported as “Soluble in hot alcohols”.

With `CCOC(=O)C(C)n1nc(-c2ccc(O)cc2)c(-c2ccc(O)cc2)nc1=O` (centres unmarked) [Example 2, 2-(1-ethoxycarbonyl-1-ethyl)-3-oxo-5,6-di(parahydroxyphenyl)-as-triazine] the “solubility (insoluble in)” value [3] was “Insoluble in water, dilute bases and acids, benzene, chloroform, methylene chloride, ether” and the “solubility (soluble in)” value [3] was “Soluble in hot alcohols”.
